Patent publication US20040093169A1, “Method of designing molecular structure of enzyme inhibitor” (TOYO SUISAN KAISHA, LTD., priority 2000, published 2004)

Experiments:
[1] = biological target: rat pol. β (Rattus norvegicus, UniProt P06766); experiment: Inhibitory activity on rat pol. β ([3H]-dTTP incorporation, poly(dA)/oligo(dT)12-18); format: biochemical; settings: compared among fatty acids
Description: The activity of rat pol. β was measured according to the method described in reference 3 listed below, by using poly(dA)/oligo(dT)12-18 (template DNA) and [^3H]-dTTP (nucleotide) as substrates and measuring radiation of [^3H]-dTTP incorporated in the presence of nervonic acid of different concentrations.
FIG. 5 is a graph showing an inhibition curve. In FIG. 5, the vertical axis represents the activity of rat pol. β and the horizontal axis represents the concentration of nervonic acid.

[2] = biological target: HIV reverse transcriptase (Human immunodeficiency virus type 1 group M subtype B, UniProt P03366); experiment: Inhibitory activity on HIV reverse transcriptase; format: biochemical; settings: compared with inhibitory activity on rat pol. β
Description: The confirmation of the inhibitory activity of nervonic acid on HIV reverse transcriptase was carried out.
Specifically, the inhibitory activity of nervonic acid on HIV reverse transcriptase was measured according to the method described in reference 8 listed below.

[3] = tested on: DNA polymerase; settings: reported by Ogawa et al., Jpn. J. Cancer Res. 89, 1154-1159, 1998; cited from earlier work

## CCCCCCCC/C=C\CCCCCCCCCCCCCC(=O)O [nervonic acid, cis-15-tetracosenoic acid]
[1]
  inhibition of rat pol. β: one of the fatty acids which most strongly inhibit rat pol. β
[2]
  inhibitory activity on HIV reverse transcriptase (inhibition curve, FIG. 15): substantially equal to the inhibitory activity of nervonic acid on rat pol. β

## C[C@H](CCC(=O)O)[C@H]1CC[C@H]2[C@@H]3CC[C@@H]4C[C@H](O)CC[C@]4(C)[C@H]3CC[C@]12C [lithocholic acid, 3-α-hydroxy-5β-cholanoic acid]
[3]
  inhibitor on DNA polymerase: known as inhibitors on DNA polymerase
